Values quoted from earlier work, collected in patent US11602517B2, “Pharmaceutical composition, comprising polmacoxib and pregabalin, for treatment of pain” (CRYSTALGENOMICS, INC., priority 2018, dated 2023).

Legend:
[1] = white or light yellow crystalline powder

## CC(C)C[C@H](CN)CC(=O)O [Pregabalin, (S)-(+)-3-(aminomethyl)-5-methyl-hexanoic acid]
Absorbed from the upper part of the small intestine
  average absorption time: 6 h
Absorption in the body
  time to reach maximum blood concentration: ≤ 1.3 h
In vivo
  bioavailability: about 90%
[1]
  solubility in water: soluble in water
